Reference: ChEMBL document CHEMBL1240332, “Mechanisms, biology and inhibitors of deubiquitinating enzymes” (Nat Chem Biol, 2007)

Tests used:
[1] = molecular target: T1, Protein-glutamine gamma-glutamyltransferase (Homo sapiens, UniProt P21980); assay: Inhibition of tissue transglutaminase
T1 sequence (P21980 whole entry): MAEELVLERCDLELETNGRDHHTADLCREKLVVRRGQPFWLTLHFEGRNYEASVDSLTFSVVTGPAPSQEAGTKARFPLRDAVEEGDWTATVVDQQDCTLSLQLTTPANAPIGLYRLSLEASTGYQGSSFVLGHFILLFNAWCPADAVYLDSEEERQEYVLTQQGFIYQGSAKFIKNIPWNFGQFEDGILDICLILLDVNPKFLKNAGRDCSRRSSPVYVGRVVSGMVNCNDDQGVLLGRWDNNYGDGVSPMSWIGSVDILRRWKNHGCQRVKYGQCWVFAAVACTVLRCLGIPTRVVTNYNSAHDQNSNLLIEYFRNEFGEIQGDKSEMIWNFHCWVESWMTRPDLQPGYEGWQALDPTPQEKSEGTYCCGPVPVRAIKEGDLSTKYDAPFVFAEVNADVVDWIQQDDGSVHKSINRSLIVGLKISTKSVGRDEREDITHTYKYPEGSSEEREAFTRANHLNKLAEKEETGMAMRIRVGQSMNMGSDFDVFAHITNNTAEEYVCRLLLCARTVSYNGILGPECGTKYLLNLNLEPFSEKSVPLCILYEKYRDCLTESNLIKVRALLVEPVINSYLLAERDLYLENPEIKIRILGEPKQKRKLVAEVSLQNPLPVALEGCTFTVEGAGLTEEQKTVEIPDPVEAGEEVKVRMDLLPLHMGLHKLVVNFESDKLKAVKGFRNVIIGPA

[2] = molecular target: T2, Ubiquitin carboxyl-terminal hydrolase isozyme L3 (Homo sapiens, UniProt P15374); assay: Inhibition of UCHL3
T2 sequence (P15374 whole entry): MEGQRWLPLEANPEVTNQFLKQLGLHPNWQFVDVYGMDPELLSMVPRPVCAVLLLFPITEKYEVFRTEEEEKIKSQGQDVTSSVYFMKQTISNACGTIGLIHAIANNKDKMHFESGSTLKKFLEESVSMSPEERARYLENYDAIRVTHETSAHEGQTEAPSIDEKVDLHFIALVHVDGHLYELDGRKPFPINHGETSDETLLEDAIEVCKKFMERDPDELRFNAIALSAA

[3] = molecular target: T3, Caspase-3 (Homo sapiens, UniProt P42574); assay: Inhibition of caspase3
T3 sequence (P42574 whole entry): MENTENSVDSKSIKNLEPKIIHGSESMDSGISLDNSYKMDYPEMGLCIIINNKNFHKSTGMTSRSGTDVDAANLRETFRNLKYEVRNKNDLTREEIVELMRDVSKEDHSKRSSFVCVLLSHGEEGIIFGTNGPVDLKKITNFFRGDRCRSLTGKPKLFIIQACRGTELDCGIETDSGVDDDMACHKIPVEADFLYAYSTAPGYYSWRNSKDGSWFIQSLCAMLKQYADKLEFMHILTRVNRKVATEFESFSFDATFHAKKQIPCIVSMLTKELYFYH

[4] = molecular target: T4, Ubiquitin carboxyl-terminal hydrolase 5 (Homo sapiens, UniProt P45974); assay: Inhibition of isopeptidase T
T4 sequence (P45974 whole entry): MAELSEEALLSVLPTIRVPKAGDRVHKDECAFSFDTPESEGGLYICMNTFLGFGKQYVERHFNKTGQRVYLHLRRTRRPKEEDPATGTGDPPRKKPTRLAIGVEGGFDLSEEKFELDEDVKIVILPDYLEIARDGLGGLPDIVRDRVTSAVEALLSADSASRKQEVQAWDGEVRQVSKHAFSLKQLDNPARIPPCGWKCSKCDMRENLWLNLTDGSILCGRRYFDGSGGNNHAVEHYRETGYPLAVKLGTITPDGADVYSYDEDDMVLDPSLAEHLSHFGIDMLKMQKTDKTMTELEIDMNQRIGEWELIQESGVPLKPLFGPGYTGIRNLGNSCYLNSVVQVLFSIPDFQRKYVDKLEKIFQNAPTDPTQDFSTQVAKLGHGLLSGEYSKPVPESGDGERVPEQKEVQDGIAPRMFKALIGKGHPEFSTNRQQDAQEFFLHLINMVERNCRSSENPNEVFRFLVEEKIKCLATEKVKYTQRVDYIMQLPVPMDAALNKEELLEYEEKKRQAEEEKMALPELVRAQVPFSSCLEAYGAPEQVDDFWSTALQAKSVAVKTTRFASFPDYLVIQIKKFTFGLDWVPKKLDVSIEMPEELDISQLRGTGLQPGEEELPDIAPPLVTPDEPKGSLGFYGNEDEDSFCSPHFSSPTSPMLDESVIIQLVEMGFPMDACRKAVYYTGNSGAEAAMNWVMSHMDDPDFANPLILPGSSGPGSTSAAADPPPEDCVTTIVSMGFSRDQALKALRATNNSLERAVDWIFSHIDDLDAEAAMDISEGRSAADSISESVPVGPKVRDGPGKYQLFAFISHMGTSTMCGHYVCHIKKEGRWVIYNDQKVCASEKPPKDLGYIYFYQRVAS

[5] = molecular target: T5, Ubiquitin carboxyl-terminal hydrolase isozyme L1 (Homo sapiens, UniProt P09936); assay: Inhibition of UCHL1 in human H1299 cells; assay type: cell-based
T5 sequence (P09936 whole entry): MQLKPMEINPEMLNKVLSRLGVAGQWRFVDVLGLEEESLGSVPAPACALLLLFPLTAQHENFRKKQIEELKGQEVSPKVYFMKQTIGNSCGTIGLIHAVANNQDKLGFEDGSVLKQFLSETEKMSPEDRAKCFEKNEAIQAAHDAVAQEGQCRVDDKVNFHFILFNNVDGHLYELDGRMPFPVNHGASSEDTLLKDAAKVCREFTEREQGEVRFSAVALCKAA

[6] = molecular target: T2, Ubiquitin carboxyl-terminal hydrolase isozyme L3; assay: Inhibition of UCHL3 in human H1299 cells; assay type: cell-based

Structure (SMILES)	Ki [1] [µM]	Ki [2] [µM]	Ki [3] [µM]	Ki [4] [µM]	IC50 [5] [µM]	IC50 [6] [µM]
Nc1c(C(=O)c2ccccc2)sc2[nH]c(=O)c(C(=O)O)cc12	> 100	> 100	> 100	> 100		
CCCCc1ccc(-c2n[nH]c(=S)n2-c2ccc(C(C)C)cc2)cc1					126	47
CC1=CC(=O)c2ccccc2C1=O [MENADIONE]					290	71

The remaining lines, values ahead:

Ki [1] [µM]	Ki [2] [µM]	Ki [3] [µM]	Ki [4] [µM]	IC50 [5] [µM]	IC50 [6] [µM]	Structure (SMILES)
				75	0.6	O=C1CC(=O)c2c(Cl)c(Cl)c(Cl)c(Cl)c21
				0.81	17	CC(=O)O/N=C1/C(=O)N(Cc2ccc(Cl)c(Cl)c2)c2ccc(Br)cc21
				0.88	25	CC(=O)O/N=C1/C(=O)N(Cc2cc(Cl)ccc2Cl)c2ccc(Br)cc21
				0.94	23	CC(=O)O/N=C1/C(=O)N(Cc2ccc(Cl)c(Cl)c2)c2ccc(I)cc21
